Results on 34 molecules are retold here after patent publication US20080255192A1, “Methods and Compositions for Selectin Inhibition” (Wyeth, priority 2007, published 2008).

What is called inhibition is the change of the read-out against control, counted positive when it falls.

Some results are limits rather than exact numbers.

The assay deals with T1, P-selectin/PSGL-1 interaction (Homo sapiens, UniProt P16109).
T1 construct: comprised of the lectin and epidermal growth factor-like (EGF) domains expressed in CHO cells; made in house; host or cells: CHO cells (P-LE)
T1 sequence (P16109 42-198): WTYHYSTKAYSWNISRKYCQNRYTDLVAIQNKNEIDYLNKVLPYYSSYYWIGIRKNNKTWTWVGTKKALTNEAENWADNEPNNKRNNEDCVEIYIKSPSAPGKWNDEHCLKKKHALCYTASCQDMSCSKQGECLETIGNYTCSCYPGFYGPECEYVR
Put plainly: Biacore P-Selectin/PSGL-1 Inhibition Assay (surface plasmon resonance). It counts as binding. To be noted: 250 uM test compound, 500 nM P.LE, immobilized PSGL-1 19ek, 10% DMSO, pH 7.4. A digest of the protocol:
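Biotinylated monomeric human PSGL-1 "19ek" on streptavidin chip (600–700 RU); compounds preincubated 1 h, then mixed with 500 nM P-LE (lectin-EGF, CHO-expressed) at 250 or 500 μM compound, 10% DMSO, HEPES buffer with 1 mM CaCl2/MgCl2, pH 7.4. SPR at 25 °C; percent binding inhibition from double-referenced signals.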
In turn, `CCc1cccc2c(C(=O)O)c(O)c(C3(c4ccc(C(F)(F)F)cc4)CC3)nc12` [Compound 87, 8-ethyl-3-hydroxy-2-(1-(4-(trifluoromethyl)phenyl)cyclopropyl)quinoline-4-carboxylic acid] gave an inhibition at 250 µM of 61%.
The same measure for `CC(C)c1cccc2c(C(=O)O)c(O)c(C3(c4ccc(C(F)(F)F)cc4)CC3)nc12` [Compound 88, 3-hydroxy-8-isopropyl-2-(1-(4-(trifluoromethyl)phenyl)cyclopropyl)quinoline-4-carboxylic acid]: 34%; for `CCc1ccc2c(C(=O)O)c(O)c(C3(c4ccc(C(F)(F)F)cc4)CC3)nc2c1` [Compound 89, 7-ethyl-3-hydroxy-2-(1-(4-(trifluoromethyl)phenyl)cyclopropyl)quinoline-4-carboxylic acid]: 10%; for `O=C(O)c1c(O)c(C2(c3ccc(C(F)(F)F)cc3)CC2)nc2ccc(OC(F)(F)F)cc12` [Compound 90, 3-hydroxy-6-(trifluoromethoxy)-2-(1-(4-(trifluoromethyl)phenyl)cyclopropyl)quinoline-4-carboxylic acid]: 47%.
The same measure for `O=C(O)c1c(O)c(C2(c3ccc(C(F)(F)F)cc3)CC2)nc2c(-c3ccsc3)cccc12` [Compound 91, 3-hydroxy-8-(thiophen-3-yl)-2-(1-(4-(trifluoromethyl)phenyl)cyclopropyl)quinoline-4-carboxylic acid]: ≤ 10%; for `O=C(O)c1c(O)c(C2(c3ccc(C(F)(F)F)cc3)CC2)nc2c(-c3ccccc3)cccc12` [Compound 92, 3-hydroxy-8-phenyl-2-(1-(4-(trifluoromethyl)phenyl)cyclopropyl)quinoline-4-carboxylic acid]: ≤ 10%.
`O=C(O)c1c(O)c(C2(c3ccc(C(F)(F)F)cc3)CC2)nc2c3c(ccc12)CCCC3` [Compound 93, 3-hydroxy-2-(1-(4-(trifluoromethyl)phenyl)cyclopropyl)-7,8,9,10-tetrahydrobenzo[h]quinoline-4-carboxylic acid] had an inhibition at 250 µM of 33%.
Regarding `Cc1cc(C(F)(F)F)c2nc(C3(c4ccc(Cl)cc4)CC3)c(O)c(C(=O)O)c2c1` [Compound 94, 2-(1-(4-chlorophenyl)cyclopropyl)-3-hydroxy-6-methyl-8-(trifluoromethyl)quinoline-4-carboxylic acid], the inhibition at 250 µM amounted to 65%.
In the case of `O=C(O)c1c(O)c(C2(c3ccc(Cl)cc3)CC2)nc2c(C(F)(F)F)cc(Cl)cc12` [Compound 95, 6-chloro-2-(1-(4-chlorophenyl)cyclopropyl)-3-hydroxy-8-(trifluoromethyl)quinoline-4-carboxylic acid] it was ≤ 10%.
`O=C(O)c1c(O)c(C2(c3ccc(Cl)cc3)CC2)nc2c(C(F)(F)F)cc(-c3ccccc3)cc12` [Compound 96, 2-(1-(4-chlorophenyl)cyclopropyl)-3-hydroxy-6-phenyl-8-(trifluoromethyl)quinoline-4-carboxylic acid]: the inhibition at 250 µM is ≤ 10%.
On to `Cc1cc(C(F)(F)F)cc2c(C(=O)O)c(O)c(C3(c4ccc(Cl)cc4)CC3)nc12` [Compound 97, 2-(1-(4-chlorophenyl)cyclopropyl)-3-hydroxy-8-methyl-6-(trifluoromethyl)quinoline-4-carboxylic acid], for which the inhibition at 250 µM is 40%.
The same measure for `CCc1cc(C(F)(F)F)c2nc(C3(c4ccc(Cl)cc4)CC3)c(O)c(C(=O)O)c2c1` [Compound 98]: ≤ 10%; for `CCc1cc(C(F)(F)F)cc2c(C(=O)O)c(O)c(C3(c4ccc(Cl)cc4)CC3)nc12` [Compound 99, 2-(1-(4-chlorophenyl)cyclopropyl)-8-ethyl-3-hydroxy-6-(trifluoromethyl)quinoline-4-carboxylic acid]: ≤ 10%.
Consider `O=C(O)c1c(O)c(C2(c3ccc(Cl)cc3)CC2)nc2c(-c3ccccc3)cc(C(F)(F)F)cc12` [Compound 100, 2-(1-(4-chlorophenyl)cyclopropyl)-3-hydroxy-8-phenyl-6-(trifluoromethyl)quinoline-4-carboxylic acid], for which the inhibition at 250 µM is ≤ 10%.
The same measure for `Cc1cc(C(F)(F)F)c2nc(C3(c4ccccc4)CC3)c(O)c(C(=O)O)c2c1` [Compound 101, 3-hydroxy-6-methyl-2-(1-phenylcyclopropyl)-8-(trifluoromethyl)quinoline-4-carboxylic acid]: 40%; for `O=C(O)c1c(O)c(C2(c3ccccc3)CC2)nc2c(C(F)(F)F)cc(-c3ccccc3)cc12` [Compound 102, 3-hydroxy-6-phenyl-2-(1-Phenylcyclopropyl)-8-(trifluoromethyl)quinoline-4-carboxylic acid]: ≤ 10%; for `O=C(O)c1c(O)c(C2(c3ccc(Cl)cc3)CC2)nc2c(C(F)(F)F)cc(Br)cc12` [Compound 103, 6-bromo-2-(1-(4-chlorophenyl)cyclopropyl)-3-hydroxy-8-(trifluoromethyl)quinoline-4-carboxylic acid]: ≤ 10%.
For `CCc1cc(C(F)(F)F)c2nc(C3(c4ccccc4)CC3)c(O)c(C(=O)O)c2c1` [Compound 104, 6-ethyl-3-hydroxy-2-(1-phenylcyclopropyl)-8-(trifluoromethyl)quinoline-4-carboxylic acid], the inhibition at 250 µM amounted to 40%.
The same measure for `O=C(O)c1c(O)c(C2(c3ccc(Cl)cc3)CC2)nc2c(C(F)(F)F)cc(C(F)(F)F)cc12` [Compound 105, 3-hydroxy-2-(1-(4-chlorophenyl)cyclopropyl)-6,8-bis(trifluoromethyl)quinoline-4-carboxylic acid]: ≤ 10%.
The same measure for `O=C(O)c1c(O)c(C2(c3ccccc3)CC2)nc2c(C(F)(F)F)cc(C(F)(F)F)cc12` [Compound 106]: 41%; for `O=C(O)c1c(O)c(C2(c3ccccc3)CC2)nc2c(C(F)(F)F)cc(Br)cc12` [Compound 107, 6-bromo-3-hydroxy-2-(1-phenylcyclopropyl)-8-(trifluoromethyl)quinoline-4-carboxylic acid]: 41%.
The same measure for `O=C(O)c1c(O)c(C2(c3ccc(Cl)cc3)CC2)nc2c(C(=O)O)cccc12` [Compound 108, 2-(1-(4-chlorophenyl)cyclopropyl)-3-hydroxyquinoline-4,8-dicarboxylic acid]: 12%; for `O=C(O)c1c(O)c(C2(c3ccc(Cl)cc3)CC2)nc2c(C3CC3)cccc12` [Compound 109, 2-[1-(4-chloro-phenyl)-cyclopropyl]-8-cyclopropyl-3-hydroxy-quinoline-4-carboxylic acid]: 57%; for `O=C(O)c1c(O)c(C2(c3ccccc3)CC2)nc2c(C3CC3)cccc12` [Compound 110, 8-cyclopropyl-3-hydroxy-2-(1-phenyl-cyclopropyl)-quinoline-4-carboxylic acid]: 13%.
`O=C(O)c1c(O)c(CC2(c3ccccc3)CC2)nc2c(C(F)(F)F)cccc12` [Compound 111, 3-hydroxy-2-(1-phenyl-cyclopropylmethyl)-8-trifluoromethyl-quinoline-4-carboxylic acid] showed an inhibition at 250 µM of 46%.
The same measure for `O=C(O)c1c(O)c(C2(Cc3ccccc3)CC2)nc2c(C(F)(F)F)cccc12` [Compound 112, 2-(1-benzyl-cyclopropyl)-3-hydroxy-8-trifluoromethyl-quinoline-4-carboxylic acid]: 43%; for `Cc1ccc(C2(c3nc4c(C)c(C)ccc4c(C(=O)O)c3O)CC2)cc1` [Compound 113, 3-hydroxy-7,8-dimethyl-2-(1-p-tolyl-cyclopropyl)-quinoline-4-carboxylic acid]: 24%.
As to `CC(C)(c1ccccc1)c1nc2c3c(ccc2c(C(=O)O)c1O)CCCC3` [Compound 114, 3-hydroxy-2-(2-phenylpropan-2-yl)-7,8,9,10-tetrahydrobenzo[h]quinoline-4-carboxylic acid], the inhibition at 250 µM was found to be 69%.
`Cc1ccc2c(C(=O)O)c(O)c(C(C)(C)c3ccccc3)nc2c1C` [Compound 115, 3-hydroxy-7,8-dimethyl-2-(2-phenylpropan-2-yl)quinoline-4-carboxylic acid] showed an inhibition at 250 µM of 60%.
For the molecule `CC(C)c1cccc2c(C(=O)O)c(O)c(C(C)(C)c3ccccc3)nc12` [Compound 116, 3-hydroxy-8-isopropyl-2-(2-phenylpropan-2-yl)quinoline-4-carboxylic acid], testing at 250 µM gave an inhibition of 68%.
In the case of `CC(C)(c1ccccc1)c1nc2c(C(F)(F)F)cccc2c(C(=O)O)c1O` [Compound 117, 3-hydroxy-2-(2-phenylpropan-2-yl)-8-(trifluoromethyl)quinoline-4-carboxylic acid] it was 55%; in that of `CC(C)c1cccc2c(C(=O)O)c(O)c(C(C)(C)c3ccc(Cl)cc3)nc12` [Compound 118, 2-(2-(4-Chlorophenyl)propan-2-yl)-3-hydroxy-8-isopropylquinoline-4-carboxylic acid], ≤ 10%; in that of `CC(C)(c1ccc(Cl)cc1)c1nc2c(C(F)(F)F)cccc2c(C(=O)O)c1O` [Compound 119, 2-(2-(4-Chlorophenyl)propan-2-yl)-3-hydroxy-8-(trifluoromethyl)quinoline-4-carboxylic acid], ≤ 10%.
The same measure for `CC(C)(c1ccc(Cl)cc1)c1nc2c3c(ccc2c(C(=O)O)c1O)CCCC3` [Compound 120, 2-(2-(4-Chlorophenyl)propan-2-yl)-3-hydroxy-7,8,9,10-tetrahydrobenzo[h]quinoline-4-carboxylic acid]: ≤ 10%.
